The nature of data set [1]: Cell viability assay (MTT) on normal mammary epithelial cells. In kind it is cell-based. The conditions noted are these: human, MCF-10A normal mammary gland epithelial cells, MCF-10A cells, four days. The protocol: To test the viability of new substances, the epithelial (MCF-10A) cell line of the normal human mammary gland was used. Compounds 8–17 were incubated for four days on MCF-10A cells before being tested for viability using the MTT assay. According to Table 1, none of the substances tested were cytotoxic, and cell viability at 50 µM was greater than 87% for the compounds tested.
The normal human mammary gland epithelial (MCF-10A) cell line was used to test the viability of new compounds [46, 47]. See Appendix SA (Supplementary File).
(§1) 4.2. Biological evaluation
4.2.1. Cytotoxic activity using MTT Assay and evaluation of IC50
MTT assay was performed to investigate the effect of the synthesized compounds on mammary epithelial cells (MCF-10A). The cells were propagated in medium consisting of Ham's F-12 medium/ Dulbecco's modified Eagle's medium (DMEM) (1:1) supplemented with 10% foetal calf serum, 2 mM glutamine, insulin (10 μg/mL), hydrocortisone (500 ng/mL) and epidermal growth factor (20 ng/mL). Trypsin ethylenediamine tetra acetic acid (EDTA) was used to passage the cells after every 2-3 days. 96-well flat-bottomed cell culture plates were used to seed the cells at a […]
of 10^4 cells mL-1. The medium was aspirated from all the wells of culture plates after 24 h followed by the addition of synthesized compounds (in 200 μL medium to yield a final concentration of 0.1% (v/v) dimethyl sulfoxide) into individual wells of the plates. Four wells were designated to a single compound. The plates were allowed to incubate at 37°C for 96 h. Afterwards, the medium was aspirated and 3 -[4,5-dimethylthiazol-2-yl]-2,5-diphenyltetrazolium bromide (MTT) (0.4 mg/mL) in medium was added to each well and subsequent ly incubated for 3 h. The medium was aspirated and 150 μL dimethyl sulfoxide (DMSO) was added to each well. The plates were vortexed followed by the measurement of absorbance at 540 nm on a microplate reader. […]

In data set [2] the test system is Panc-1 (pancreatic cancer cell line). The experiment in a line: Antiproliferative assay (MTT), Panc-1. The conditions noted are these: Homo sapiens, read-out: Antiproliferative Activity IC50 ± SEM (µM) Panc-1. Type of data set: cell-based. The protocol:
(§2) The antiproliferative activity of pyrazoline hybrids 8–17 was tested against the four human cancer cell lines Panc-1 (pancreatic cancer cell line), MCF-7 (breast cancer cell line), HT-29 (colon cancer cell line), and A-549 (lung cancer cell line) using the MTT assay and doxorubicin as the reference drug. See Appendix SA (Supplementary File). […]
(§3) 4.2.1.2. Assay for antiproliferative effect
(§4) To explore the antiproliferative potential of compounds propidium iodide fluorescence assay was performed using different cell lines such as Panc -1 (pancreas cancer cell line), MCF-7 (breast cancer cell line), HT-29 (colon cancer cell line) and A-549 (epithelial cancer cell line), respectively. To calculate the total nuclear DNA, a fluorescent dye (propidium iodide, PI) is used which can attach to the DNA, thus offering a quick and precise technique. PI cannot pass through the cell membrane and its signal intensity can be considered as directly proportional to quantity of cellular DNA. Cells whose cell membranes are damaged or have changed permeability are counted as dead ones. The assay was performed by seeding the cells of different cell lines at a density of 3000-7500 cells/well (in200μl medium) in culture plates followed by incubation for 24h at 37 °C in humidified 5%CO2/95% air atmospheric conditions. The medium was removed; the compounds were added to the plates at 10 μM concentrations (in 0.1% DMSO) in triplicates, followed by incubation for 48h. DMSO (0.1%) was used as control. After incubation, medium was removed followed by the addition of PI (25 μl, 50μg/mL in water/medium) to each well of the plates. At - 80 °C, the plates were allowed to freeze for 24 h, followed by thawing at 25 °C. A fluorometer (Polar-Star BMG Tech) was used to record the readings at excitation and emission wavelengths of 530 and 620 nm for each well. The percentage cytotoxicity of compounds was calculated using […]
(§5) Where ATC= Absorbance of treated cells and AC= Absorbance of control. Erlotinib was used as positive control in the assay. […]

Data set [3] relates to HT-29 (colon cancer cell line). The experiment in a line: Antiproliferative assay (MTT), HT-29. In kind it is cell-based. The conditions noted are these: Homo sapiens, read-out: Antiproliferative Activity IC50 ± SEM (µM) HT-29. As for the experimental part: as §2, §3, §4, §5
The test system of data set [4] is four human cancer cell lines (A-549, MCF-7, Panc-1, HT-29). The data set can be described thus: Antiproliferative assay, mean of four cancer cell lines (GI50). Type of data set: cell-based. The conditions noted are these: mean over A-549, MCF-7, Panc-1, HT-29.
In data set [5] the test system is MCF-7 (breast cancer cell line). The data set can be described thus: Antiproliferative assay (MTT), MCF-7. The conditions noted are these: Homo sapiens, MCF7; read-out: Antiproliferative Activity IC50 ± SEM (µM) MCF-7. In kind it is cell-based. As for the experimental part:
(§6) The antiproliferative activity of pyrazoline hybrids 8–17 was tested against the four human cancer cell lines Panc-1 (pancreatic cancer cell line), MCF-7 (breast cancer cell line), HT-29 (colon cancer cell line), and A-549 (lung cancer cell line) using the MTT assay and doxorubicin as the reference drug. See Appendix SA (Supplementary File).
as §1
(§7) 4.2.1. Cytotoxic activity using MTT Assay and evaluation of IC50 […]
(§8) 96-well flat-bottomed cell culture plates were used to seed the cells at a […]
(§9) of 10^4 cells mL-1. The medium was aspirated from all the wells of culture plates after 24 h followed by the addition of synthesized compounds (in 200 μL medium to yield a final concentration of 0.1% (v/v) dimethyl sulfoxide) into individual wells of the plates. Four wells were designated to a single compound. The plates were allowed to incubate at 37°C for 96 h. Afterwards, the medium was aspirated and 3 -[4,5-dimethylthiazol-2-yl]-2,5-diphenyltetrazolium bromide (MTT) (0.4 mg/mL) in medium was added to each well and subsequent ly incubated for 3 h. The medium was aspirated and 150 μL dimethyl sulfoxide (DMSO) was added to each well. The plates were vortexed followed by the measurement of absorbance at 540 nm on a microplate reader. The results were presented as inhibition (%) of proliferation in contrast to controls comprising 0.1% 4.2.1.2. Assay for antiproliferative effect
as §4, §5

The subject of data set [6] is A-549 (lung cancer cell line). The experiment in a line: Antiproliferative assay (MTT), A-549. The conditions noted are these: Homo sapiens, A549; read-out: Antiproliferative Activity IC50 ± SEM (µM) A-549. In kind it is cell-based. The protocol: as §6, §1, §7, §8, §9, §4, §5
Data set [7] deals with BRAF^V600E. The experiment in a line: BRAF^V600E inhibitory assay.
Target sequence in this assay (P28028 whole entry V585E): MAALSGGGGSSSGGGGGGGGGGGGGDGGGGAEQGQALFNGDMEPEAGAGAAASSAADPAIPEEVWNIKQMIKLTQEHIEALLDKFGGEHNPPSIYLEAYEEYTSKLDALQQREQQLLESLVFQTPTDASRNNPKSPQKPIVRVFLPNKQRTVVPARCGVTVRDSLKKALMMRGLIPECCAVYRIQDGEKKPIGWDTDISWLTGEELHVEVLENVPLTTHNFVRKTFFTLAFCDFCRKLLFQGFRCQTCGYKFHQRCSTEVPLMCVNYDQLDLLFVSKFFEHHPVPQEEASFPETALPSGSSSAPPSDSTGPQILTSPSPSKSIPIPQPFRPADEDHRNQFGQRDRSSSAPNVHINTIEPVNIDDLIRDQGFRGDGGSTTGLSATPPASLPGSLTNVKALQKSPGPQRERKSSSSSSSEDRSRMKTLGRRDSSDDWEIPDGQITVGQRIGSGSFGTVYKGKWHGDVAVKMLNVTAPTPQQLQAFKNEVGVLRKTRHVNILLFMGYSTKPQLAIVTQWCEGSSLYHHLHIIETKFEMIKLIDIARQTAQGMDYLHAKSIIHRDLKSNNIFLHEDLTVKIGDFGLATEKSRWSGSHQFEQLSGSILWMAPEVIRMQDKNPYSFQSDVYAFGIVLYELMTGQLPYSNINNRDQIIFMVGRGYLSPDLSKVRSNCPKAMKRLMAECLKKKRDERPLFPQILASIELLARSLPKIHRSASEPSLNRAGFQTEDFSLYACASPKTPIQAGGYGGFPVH
Experimental: V600E mutant BRAF kinase assay was performed to investigate the activity of tested compounds against BRAF. Mouse full-length GST-tagged BRAFV600E (7.5 ng, Invitrogen, PV3849) was pre-incubated with drug (1 µL) and assay dilution buffer (4 µL) for 60 min at 25 °C. In assay dilution buffer, a solution (5 µL) containing MgCl2 (30 mM), ATP (200 µM), recombinant human full length (200 ng) and N-terminal His-tagged MEK1 (Invitrogen) was added to start the assay, subsequent to incubation for 25 min at 25 °C. The assay was stopped using 5X protein denaturing buffer (LDS) solution (5 µL). To further denature the protein, heat (70° C) was applied for 5 min.
10 µL of each reaction was loaded into the precast plates and electrophoresis was allowed to proceed. After completion of electrophoresis, the front part of the precast gel plate (holding hot ATP) was cut and afterwards cast-off. The dried gel was developed using a phosphor screen.
served as positive control.
Data set [8] has as its target T1, EGFR (Homo sapiens, UniProt P00533).
T1 construct: 645–1186); His6 (N); made in house; host or cells: Sf-9 insect cells (baculovirus; pBlueBacHis2B / pFASTBacHTc
The data set can be described thus: EGFR inhibitory assay. Type of data set: biochemical. The conditions noted are these: read-out: EGFR Inhibition IC50 ± SEM. The protocol: 4.2.2. EGFR inhibitory assay
Baculoviral expression vectors including pBlueBacHis2B and pFASTBacHTc were used […]
(1 picture or pasted object on this page, not shown here)
5ʹ upstream to the EGFR sequence comprised a sequence that encoded (His)6. Sf-9 cells were infected for 72h for protein expression. The pellets of Sf-9 cells were solubilized in a buffer containing sodium vanadate (100 μM), aprotinin (10 μg/mL), triton (1%), HEPES […]
centrifugation for 20 min.
Histidine-linked proteins were first eluted with 250 and then […]
enhancement solution was added to each well and the signal was recorded at excitation and […]
The autophosphorylation percentage inhibition by compounds was calculated using the following equation: […]

Data set [9] concerns the target T1, EGFR. Set-up: method as in PMID 35424523. The conditions noted are these: cited from earlier work.
Data set [10] deals with BRAF^V600E. Set-up: method as in PMID 35424523. The conditions noted are these: cited from earlier work.

Where “and” joins values, the source holds several entries; their conditions need not be identical. Equal values may be shown once. Read-outs that look alike come from different tables or passages of the source.

T1 sequence (P00533 669-1210): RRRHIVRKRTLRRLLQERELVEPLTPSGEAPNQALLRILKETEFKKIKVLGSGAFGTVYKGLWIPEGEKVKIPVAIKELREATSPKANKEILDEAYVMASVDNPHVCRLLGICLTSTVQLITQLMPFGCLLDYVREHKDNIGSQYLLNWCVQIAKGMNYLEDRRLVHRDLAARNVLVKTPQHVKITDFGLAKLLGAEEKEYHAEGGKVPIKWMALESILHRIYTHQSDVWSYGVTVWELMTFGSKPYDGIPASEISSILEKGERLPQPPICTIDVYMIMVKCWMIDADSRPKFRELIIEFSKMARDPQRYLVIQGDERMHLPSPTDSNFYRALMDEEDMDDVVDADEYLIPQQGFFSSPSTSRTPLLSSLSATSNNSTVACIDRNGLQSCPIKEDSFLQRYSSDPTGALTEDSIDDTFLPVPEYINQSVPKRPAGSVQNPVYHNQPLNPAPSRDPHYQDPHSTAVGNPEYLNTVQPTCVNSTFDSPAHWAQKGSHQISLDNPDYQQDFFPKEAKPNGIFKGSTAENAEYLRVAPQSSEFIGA

In turn, `O=C(COc1ccc(C2=NNC(c3ccc(Cl)cc3)C2)cc1)Nc1ccc(C2=NNC(c3ccccc3)C2)cc1` (centres unmarked) [Compound 8, 2-(4-(5-(4-Chlorophenyl)-4,5-dihydro-1H-pyrazol-3-yl)phenoxy)-N-(4-(5-phenyl-4,5-dihydro-1H-pyrazol-3-yl)phenyl)acetamide] showed a viability at 96 h, 50 µM in data set [1] of 90%. Besides, the IC50 in [2] amounted to 4.6 ± 0.4 µM; in data set [3] it was 4.5 ± 0.4 µM; in data set [4], 4.4 µM; in data set [5], 4.1 ± 0.4 µM; in [6], 4.3 ± 0.4 µM.
`COc1ccc(C2CC(c3ccc(NC(=O)COc4ccc(C5=NNC(c6ccc(Cl)cc6)C5)cc4)cc3)=NN2)cc1` (centres unmarked) [Compound 9, 2-(4-(5-(4-Chlorophenyl)-4,5-dihydro-1H-pyrazol-3-yl)phenoxy)-N-(4-(5-(4-methoxyphenyl)-4,5-dihydro-1H-pyrazol-3-yl)phenyl)acetamide]: the viability at 96 h, 50 µM in [1] worked out at 89%. In addition, the concentration for half-maximal inhibition (IC50) came out at 2.6 ± 0.2 µM in data set [2]; 2.5 ± 0.2 µM in [3]; 2.3 µM in data set [4]; 1.9 ± 0.1 µM in data set [5]; 2.2 ± 0.2 µM in data set [6].
In turn, `O=C(COc1ccc(C2=NNC(c3ccc(Cl)cc3)C2)cc1)Nc1ccc(C2=NNC(c3ccc(Br)cc3)C2)cc1` (centres unmarked) [Compound 10, 2-(4-(5-(4-Chlorophenyl)-4,5-dihydro-1H-pyrazol-3-yl)phenoxy)-N-(4-(5-(4-bromophenyl)-4,5-dihydro-1H-pyrazol-3-yl)phenyl)acetamide] gave a viability at 96 h, 50 µM in [1] of 89%. In addition, the 50% inhibitory concentration (IC50) in [2] worked out at 3.2 ± 0.3 µM; in [3], 3.1 ± 0.3 µM; in data set [4], 3.1 µM; in data set [5], 2.9 ± 0.2 µM; in data set [6], 3.2 ± 0.3 µM.
With `O=C(COc1ccc(C2=NNC(c3ccc(Cl)cc3)C2)cc1)Nc1ccc(C2=NNC(c3ccc(Cl)cc3)C2)cc1` (centres unmarked) [Compound 11, 2-(4-(5-(4-Chlorophenyl)-4,5-dihydro-1H-pyrazol-3-yl)phenoxy)-N-(4-(5-(4-chlorophenyl)-4,5-dihydro-1H-pyrazol-3-yl)phenyl)acetamide], the viability at 96 h, 50 µM in data set [1] is 87%. Besides, the IC50 in data set [2] was determined as 2.9 ± 0.2 µM; in [3] it was 3 ± 0.2 µM; in data set [4], 2.9 µM; in data set [5], 2.7 ± 0.2 µM; in [6] it was 2.9 ± 0.2 µM.
`COc1ccc(C2CC(c3ccc(OCC(=O)Nc4ccc(C5=NNC(c6ccc(C)cc6C)C5)cc4)cc3)=NN2)cc1` (centres unmarked) [Compound 13, 2-(4-(5-(4-Methoxyphenyl)-4,5-dihydro-1H-pyrazol-3-yl)phenoxy)-N-(4-(5-(2,4-dimethylphenyl)-4,5-dihydro-1H-pyrazol-3-yl)phenyl)acetamide] had a viability at 96 h, 50 µM in [1] of 87%. Also, the IC50 in data set [2] came to 4.9 ± 0.4 µM; in [3] it was 5 ± 0.4 µM; in data set [4], 4.8 µM; in data set [5] it was 4.6 ± 0.4 µM; in [6] it was 4.8 ± 0.4 µM.
Compound `COc1ccc(C2CC(c3ccc(OCC(=O)Nc4ccc(C5=NNC(c6ccc(Br)cc6)C5)cc4)cc3)=NN2)cc1` (centres unmarked) [Compound 14, 2-(4-(5-(4-Methoxyphenyl)-4,5-dihydro-1H-pyrazol-3-yl)phenoxy)-N-(4-(5-(4-bromophenyl)-4,5-dihydro-1H-pyrazol-3-yl)phenyl)acetamide] returned a viability at 96 h, 50 µM in [1] of 89%. The IC50 against BRAF^V600E [7] is 0.125 ± 0.01 µM; in data set [2], 2 ± 0.1 µM; in data set [3], 2 ± 0.1 µM; on EGFR [8] it was 0.104 ± 0.009 µM; in data set [4], 1.85 µM; in data set [5] it was 1.6 ± 0.1 µM. Moreover, the IC50 in [6] was determined as 1.8 ± 0.1 µM.
In turn, `COc1ccc(C2CC(c3ccc(OCC(=O)Nc4ccc(C5=NNC(c6ccc(Cl)cc6)C5)cc4)cc3)=NN2)cc1` (centres unmarked) [Compound 15, 2-(4-(5-(4-Methoxyphenyl)-4,5-dihydro-1H-pyrazol-3-yl)phenoxy)-N-(4-(5-(4-chlorophenyl)-4,5-dihydro-1H-pyrazol-3-yl)phenyl)acetamide] displayed a viability at 96 h, 50 µM in data set [1] of 90%. Moreover, the IC50 against BRAF^V600E [7] was 0.098 ± 0.008 µM; in data set [2], 1.7 ± 0.1 µM; in data set [3], 1.7 ± 0.1 µM; at EGFR [8] it was 0.093 ± 0.007 µM; in data set [4] it was 1.5 µM; in [5] it was 1.2 ± 0.1 µM. Further, the IC50 in data set [6] is 1.4 ± 0.1 µM.
For `COc1ccc(C2CC(c3ccc(OCC(=O)Nc4ccc(C5=NNC(c6ccc(F)cc6)C5)cc4)cc3)=NN2)cc1` (centres unmarked) [Compound 16, 2-(4-(5-(4-Methoxyphenyl)-4,5-dihydro-1H-pyrazol-3-yl)phenoxy)-N-(4-(5-(4-fluorophenyl)-4,5-dihydro-1H-pyrazol-3-yl)phenyl)acetamide], the viability at 96 h, 50 µM in data set [1] worked out at 89%. Also, the IC50 in data set [2] is 3.8 ± 0.3 µM; in data set [3], 3.9 ± 0.3 µM; in data set [4], 3.7 µM; in data set [5], 3.5 ± 0.3 µM; in data set [6] it was 3.7 ± 0.3 µM.
For `COc1cccc2c1C(=O)c1c(O)c3c(c(O)c1C2=O)C[C@@](O)(C(=O)CO)C[C@@H]3O[C@H]1C[C@H](N)[C@H](O)[C@H](C)O1` [Doxorubicin, reference compound], the IC50 in data set [2] is 1 ± 0.02 µM; in data set [3], 1.2 ± 0.03 µM; in data set [4], 1.1 µM; in data set [5] it was 0.9 ± 0.02 µM; in data set [6], 1.4 ± 0.08 µM.
`Cc1c(Nc2nc3c(C(=O)NN)c(N)sc3s2)c(=O)n(-c2ccccc2)n1C` [II]: the IC50 at EGFR [9] was 0.02 µM; with BRAF^V600E [10], 0.088 µM and 0.09 µM.

The values above are taken from paper PMC10218941, “Design, Synthesis, Antiproliferative Actions, and DFT Studies of New Bis–Pyrazoline Derivatives as Dual EGFR/BRAF^V600E Inhibitors” (International Journal of Molecular Sciences, 2023).
